What was measured:
[1] = tested on: mice with microbead-elevated intraocular pressure
Method: Two groups of mice (N=3 each) were compared to determine the effect of a single intravitreal injection of brimonidine-laced nanoparticle relative to a single topical drop (eyedrop) of clinical-grade brimonidine. For each mouse, intraocular pressure (IOP) was acutely elevated by an injection (1 μl) of polystyrene microbeads into the anterior chamber of the eye. This induces a 35-40% elevation in IOP that persists for 3-4 weeks. […] IOP was tracked using TonoPen XL measurements until any lowering effect was dissipated.

[2] = tested on: human microvascular endothelial cells (HMEC); assay: Internalization of FITC-dendrimer conjugates, temperature effect and controls; type: cell-based; conditions: 10 uM, 60 min, 37° C.
Method: Internalization of FD-1 and FD-2 in mammalian cells was assessed using two different cell lines and a previously described method [Futaki, S.; Nakase, I.; Suzuki, T.; Youjun, Y.; Sugiura, Y. Biochemistry 2002, 41, 7925.] with NIH-3T3 fibroblasts and HMEC (human microvascular endothelial cells) and a Zeiss LSM 510 confocal microscope. […] [Futaki, S.; Nakase, I.; Suzuki, T.; Youjun, Y.; Sugiura, Y. Biochemistry 2002, 41, 7925.; Vivès, E.; Brodin, P.; Lebleu, B. J. Biol. Chem. 1997, 272, 16010.] Furthermore, the extent of internalization increased in an incubation time-dependent manner, and it was observed that after just 10 min, the fluorescence intensity of cells treated with FD-2 was near saturation. […] L. Org. Lett. 2005, 7, 4815.] but also regulate the subcellular localization of the molecule and its putative cargo. […] Therefore, the dendrimer with a hexyl spacer crosses the cell membrane faster than the molecule with an ethyl chain. On the other hand, the localization patterns can also be controlled by the length of the spacer. FD-1 with the short spacer appeared to be localized everywhere in the cell, but highly concentrated in the nucleus. […] These translocation features of guanidinlyated dendritic scaffolds as carriers can be important for intracellular delivery of cargo molecules to specific subcellular compartments (e.g., cytosol or nucleus). […]

Brc1c(NC2=NCCN2)ccc2nccnc12 [topical brimonidine, 5-Bromo-N-(4,5-dihydro-1H-imidazol-2-yl)quinoxalin-6-amine]
IOP one day after application ([1]; single application (1 μl) on day 4 after microbead injection): normal levels | time after administration at which IOP returned to elevated levels ([1]; single topical application (1 μl)): Six

fluorescein isothiocyanate [free FITC]
fluorescence of treated cells (control experiments) [2]: no

Reference: patent US9856348B2, “Multifunctional degradable nanoparticles with control over size and functionalities” (Vanderbilt University, priority 2007, dated 2018)
